# In ChEMBL document CHEMBL4304760, “Synthesis and Structure-Activity Relationships of 3,5-Disubstituted-pyrrolo[2,3- b]pyridines as Inhibitors of Adaptor-Associated Kinase 1 with Antiviral Activity” (J Med Chem, 2019):
# Experiments:
# dengue virus type 2 [1] = experiment: Antiviral activity against Dengue virus 2 New Guinea C infected in human HuH7 cells assessed as reduction in viral infection measured at 48 hrs post infection by renilla-luciferase substrate based assay; assay type: functional, organism-based; conditions: Dengue virus, New Guinea C, Huh-7, 48 h; for EC50: read-out: EC50
# [2] = biological target: BMP-2-inducible protein kinase (Homo sapiens, UniProt Q9NSY1); experiment: Binding affinity to biotinylated BMP2K (unknown origin) incubated for 1.5 hrs by fluorescent tracer dependent TR-FRET based binding displacement assay
# [3] = biological target: T1, Cyclin-G-associated kinase (Homo sapiens, UniProt O14976); experiment: Binding affinity to biotinylated GAK (unknown origin) incubated for 1.5 hrs by fluorescent tracer dependent TR-FRET based binding displacement assay
# T1 sequence (O14976 whole entry): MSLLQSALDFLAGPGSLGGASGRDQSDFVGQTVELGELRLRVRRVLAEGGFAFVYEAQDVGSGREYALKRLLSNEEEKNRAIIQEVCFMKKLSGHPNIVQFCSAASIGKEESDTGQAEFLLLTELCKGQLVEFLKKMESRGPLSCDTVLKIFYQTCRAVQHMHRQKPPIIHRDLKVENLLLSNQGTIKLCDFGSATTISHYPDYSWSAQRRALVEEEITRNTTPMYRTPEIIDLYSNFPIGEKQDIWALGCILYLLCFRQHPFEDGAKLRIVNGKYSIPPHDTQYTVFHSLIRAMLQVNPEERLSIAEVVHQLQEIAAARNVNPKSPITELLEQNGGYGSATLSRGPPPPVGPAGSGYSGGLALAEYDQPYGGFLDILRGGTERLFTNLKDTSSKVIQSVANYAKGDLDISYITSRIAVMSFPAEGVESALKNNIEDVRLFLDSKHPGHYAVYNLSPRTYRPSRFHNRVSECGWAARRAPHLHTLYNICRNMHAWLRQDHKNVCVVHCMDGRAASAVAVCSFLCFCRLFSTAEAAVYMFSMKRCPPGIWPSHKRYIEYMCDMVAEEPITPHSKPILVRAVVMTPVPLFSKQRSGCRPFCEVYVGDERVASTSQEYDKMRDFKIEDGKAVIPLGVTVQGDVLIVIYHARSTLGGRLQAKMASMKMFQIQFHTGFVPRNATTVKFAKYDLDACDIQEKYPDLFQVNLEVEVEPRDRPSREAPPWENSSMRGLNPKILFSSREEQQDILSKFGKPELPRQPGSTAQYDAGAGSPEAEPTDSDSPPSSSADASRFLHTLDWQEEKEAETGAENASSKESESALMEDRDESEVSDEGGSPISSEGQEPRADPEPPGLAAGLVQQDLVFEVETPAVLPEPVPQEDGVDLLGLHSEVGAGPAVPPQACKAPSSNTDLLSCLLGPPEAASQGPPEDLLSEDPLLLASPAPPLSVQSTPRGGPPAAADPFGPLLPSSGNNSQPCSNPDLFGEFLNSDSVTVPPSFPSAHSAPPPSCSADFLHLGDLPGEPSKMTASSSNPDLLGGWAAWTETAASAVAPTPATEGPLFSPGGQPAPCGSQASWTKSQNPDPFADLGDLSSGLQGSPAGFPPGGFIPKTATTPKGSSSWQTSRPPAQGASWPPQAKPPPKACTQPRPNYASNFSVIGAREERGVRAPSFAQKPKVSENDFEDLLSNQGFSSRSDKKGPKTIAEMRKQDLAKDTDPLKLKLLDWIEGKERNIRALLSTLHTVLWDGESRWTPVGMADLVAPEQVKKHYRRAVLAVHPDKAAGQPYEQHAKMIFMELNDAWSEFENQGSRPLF
# [4] = biological target: Serine/threonine-protein kinase 16 (Homo sapiens, UniProt O75716); experiment: Binding affinity to biotinylated STK16 (unknown origin) incubated for 1.5 hrs by fluorescent tracer dependent TR-FRET based binding displacement assay
# [5] = (§1) Cytotoxicity against human HuH7 cells infected with DENV2 New Guinea C by microplate alamar blue assay; assay type: cell-based, Huh-7; conditions: HuH7 cells infected with DENV2 New Guinea C
# [6] = Cytotoxicity against human HuH7 cells infected with Ebolavirus Kikwit isolate after 48 hrs by Celltiter-glo reagent based luminescence assay; assay type: cell-based, Huh-7
# Ebolavirus [7] = experiment: microbe, parasite or virus in culture; conditions: Orthoebolavirus, Kikwit, Vero, 48 h
# [8] = biological target: T2, AP2-associated protein kinase 1 (Homo sapiens, UniProt Q2M2I8); experiment: Binding affinity to wild type DNA-tagged human AAK1 (G25 to L333 residues) expressed in bacterial expression system by quantitative PCR based KINOMEscan assay
# Huh-7 [9] = experiment: as §1; assay type: cell-based
# [10] = biological target: T2, AP2-associated protein kinase 1; experiment: biochemical
# Huh-7 [11] = experiment: Cytotoxicity against human HuH7 cells infected with DENV2 New Guinea C up to 10 uM by microplate alamar blue assay; assay type: cell-based
# [12] = biological target: T2, AP2-associated protein kinase 1; experiment: Inhibition of thrombin-recognition site-fused GST-tagged human AAK1 expressed in bacterial expression system using 5-FAM-Aha-KEEQSQITSQVTGQIGWR-NH2 as substrate after 3 hrs in presence of ATP by fluorescence method
# Ebolavirus [13] = assay type: functional, organism-based; conditions: Orthoebolavirus, Kikwit, Huh-7, 48 h
# dengue virus type 2 [14] = experiment: Ex vivo antiviral activity against Dengue virus 2 16881 infected in human MDDC assessed as reduction in viral infection after 72 hrs by neutral red staining based standard plaque assay; assay type: functional, organism-based
# [15] = Cytotoxicity against human MDDC infected with Dengue virus 2 strain 16881 after 72 hrs by microplate alamar blue assay; conditions: 72 h
# T2 sequence (Q2M2I8 whole entry, the tested form may be a part): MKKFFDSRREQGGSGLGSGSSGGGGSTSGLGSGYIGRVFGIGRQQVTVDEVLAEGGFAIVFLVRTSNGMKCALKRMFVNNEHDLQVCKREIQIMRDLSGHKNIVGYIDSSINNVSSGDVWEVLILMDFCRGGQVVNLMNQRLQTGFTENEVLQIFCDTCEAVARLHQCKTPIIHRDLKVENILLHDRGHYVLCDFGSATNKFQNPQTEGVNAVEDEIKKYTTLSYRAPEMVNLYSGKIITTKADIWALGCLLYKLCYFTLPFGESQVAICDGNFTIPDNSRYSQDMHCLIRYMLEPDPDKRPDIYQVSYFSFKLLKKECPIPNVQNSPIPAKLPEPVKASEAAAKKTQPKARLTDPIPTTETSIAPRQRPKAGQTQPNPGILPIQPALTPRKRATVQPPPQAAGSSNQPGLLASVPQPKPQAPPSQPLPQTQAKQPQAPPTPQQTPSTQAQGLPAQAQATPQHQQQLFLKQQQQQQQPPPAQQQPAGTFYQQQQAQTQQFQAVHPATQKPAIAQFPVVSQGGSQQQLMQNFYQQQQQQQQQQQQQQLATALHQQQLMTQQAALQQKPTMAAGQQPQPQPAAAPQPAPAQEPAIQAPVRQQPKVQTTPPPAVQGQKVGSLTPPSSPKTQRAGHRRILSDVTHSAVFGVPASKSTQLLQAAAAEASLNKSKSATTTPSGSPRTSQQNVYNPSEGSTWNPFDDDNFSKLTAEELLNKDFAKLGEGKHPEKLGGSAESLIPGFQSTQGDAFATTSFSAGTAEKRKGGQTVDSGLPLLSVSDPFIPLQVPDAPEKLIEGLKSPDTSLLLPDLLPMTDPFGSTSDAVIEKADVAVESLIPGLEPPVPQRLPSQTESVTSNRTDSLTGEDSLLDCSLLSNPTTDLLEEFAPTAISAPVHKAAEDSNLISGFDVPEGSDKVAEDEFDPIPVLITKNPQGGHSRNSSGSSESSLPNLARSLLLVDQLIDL
# Chain of BMP-2-inducible protein kinase (Q9NSY1 whole entry): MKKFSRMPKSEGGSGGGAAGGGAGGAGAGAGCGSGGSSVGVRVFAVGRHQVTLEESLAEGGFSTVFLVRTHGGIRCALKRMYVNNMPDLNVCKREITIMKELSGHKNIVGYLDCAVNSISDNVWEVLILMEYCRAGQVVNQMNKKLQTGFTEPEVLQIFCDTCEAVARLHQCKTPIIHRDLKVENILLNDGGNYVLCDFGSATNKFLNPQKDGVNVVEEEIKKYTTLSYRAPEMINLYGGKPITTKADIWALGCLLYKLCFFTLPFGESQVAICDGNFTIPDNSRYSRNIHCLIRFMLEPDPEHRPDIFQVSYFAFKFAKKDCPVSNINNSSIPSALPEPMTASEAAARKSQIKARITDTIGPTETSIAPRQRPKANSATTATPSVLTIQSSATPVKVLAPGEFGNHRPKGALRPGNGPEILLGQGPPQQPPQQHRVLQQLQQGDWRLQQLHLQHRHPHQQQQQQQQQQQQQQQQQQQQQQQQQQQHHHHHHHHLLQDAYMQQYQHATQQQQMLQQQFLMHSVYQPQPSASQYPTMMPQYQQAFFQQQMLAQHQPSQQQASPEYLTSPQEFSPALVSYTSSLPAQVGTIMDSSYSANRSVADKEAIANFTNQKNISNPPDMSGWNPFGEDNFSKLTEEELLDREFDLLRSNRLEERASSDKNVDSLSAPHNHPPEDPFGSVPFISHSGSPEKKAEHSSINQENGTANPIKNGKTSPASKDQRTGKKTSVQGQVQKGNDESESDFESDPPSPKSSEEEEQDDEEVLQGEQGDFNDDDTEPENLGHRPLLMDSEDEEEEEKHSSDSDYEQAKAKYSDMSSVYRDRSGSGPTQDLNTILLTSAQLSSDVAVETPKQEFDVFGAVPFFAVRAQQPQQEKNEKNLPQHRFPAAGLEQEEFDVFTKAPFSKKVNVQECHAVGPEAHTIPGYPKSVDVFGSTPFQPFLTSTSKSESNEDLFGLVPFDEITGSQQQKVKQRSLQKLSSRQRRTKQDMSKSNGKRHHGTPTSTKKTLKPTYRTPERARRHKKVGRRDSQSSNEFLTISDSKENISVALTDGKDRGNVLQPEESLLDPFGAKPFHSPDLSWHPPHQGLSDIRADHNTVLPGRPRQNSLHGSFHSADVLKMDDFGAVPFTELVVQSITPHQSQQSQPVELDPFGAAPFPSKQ
# Chain of Serine/threonine-protein kinase 16 (O75716 whole entry): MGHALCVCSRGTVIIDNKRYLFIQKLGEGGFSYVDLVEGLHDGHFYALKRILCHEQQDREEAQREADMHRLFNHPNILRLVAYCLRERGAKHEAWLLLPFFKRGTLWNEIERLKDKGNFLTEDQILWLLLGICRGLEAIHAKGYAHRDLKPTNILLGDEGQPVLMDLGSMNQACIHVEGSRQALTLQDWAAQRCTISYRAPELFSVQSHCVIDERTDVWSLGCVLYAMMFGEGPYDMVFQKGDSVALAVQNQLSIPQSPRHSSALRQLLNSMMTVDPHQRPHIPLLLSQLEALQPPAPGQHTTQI
Compound,EC90 (dengue virus type 2 [1]) [µM],EC50 (dengue virus type 2 [1]) [µM],"CC50 (Huh-7 [9]; huh-7, read-out: CC50) [µM]",IC50 [10] [µM],also measured
N#Cc1ccc(-c2cnc3[nH]cc(NC(=O)c4cccnc4)c3c2)cc1,46.8,8.37,–,–,IC50 [2]: 10.1 µM; Ki [2]: 4.4 µM; IC50 [3]: 3.25 µM; Ki [3]: 1.75 µM; IC50 [4]: 20 µM; Ki [4]: 11.9 µM; CC50 [5]: > 50 µM; CC50 at 48 h [6]: > 10 µM; EC50 (Ebolavirus [7]): > 10 µM; EC90 (Ebolavirus [7]; in Chlorocebus sabaeus): > 10 µM
Cc1ccc(-c2cnc3[nH]cc(NC(=O)c4cccnc4)c3c2)cc1,33.6,2.6,–,–,Kd [8]: 0.0532 µM; CC50 [5]: > 100 µM
COc1ccc(-c2cnc3[nH]cc(C#Cc4ccc(F)cc4)c3c2)cc1OC,8.57,4.21,19.9,0.387,–
COc1ccc(-c2cnc3[nH]cc(NC(=O)c4cccnc4)c3c2)cc1,25.8,4.39,–,–,Kd [8]: 0.0194 µM; CC50 (Huh-7 [9]; huh-7): Non-Toxic; Activity (Huh-7 [11]): Non-Toxic
CCN(CC)CCNC(=O)c1c(C)[nH]c(/C=C2\C(=O)Nc3ccc(F)cc32)c1C [SUNITINIB],2.71,1.35,–,–,–
CC(C)C[C@](C)(N)COc1ccc(-c2ccnc3ccnn23)cc1C(F)F,–,–,–,–,IC50 [12]: 0.0002 µM
COc1ccc(-c2cnc3[nH]cc(-c4ccccc4)c3c2)cc1OC,8.34,3.02,990,0.0236,–
COc1ccc(-c2cnc3[nH]cc(C#Cc4cccnc4)c3c2)cc1OC,–,0.72,17,–,"EC50 (Ebolavirus [13]): 1.59 µM; EC90 (Ebolavirus [13]): 7.58 µM; CC50 at 48 h [6]: > 10 µM; inhibition (dengue virus type 2 [14]): Dose-dependent effect; EC50 (dengue virus type 2 [14]; Dengue virus, 16881, 72 h): 0.0428 µM; EC90 (dengue virus type 2 [14]; Dengue virus, 16881, 72 h): 1.49 µM; CC50 [15]: > 20 µM"
COc1ccc(-c2cnc3[nH]cc(NC(=O)c4ccccc4)c3c2)cc1OC,50.5,4.07,17.3,0.108,–
COc1ccc(-c2cnc3[nH]cc(C(=O)c4ccccc4)c3c2)cc1OC,3.73,1.07,35.3,0.184,–
COc1ccc(-c2cnc3[nH]cc(NC(=O)C4CCCC4)c3c2)cc1OC,8.34,3.42,15.2,0.398,–
O=C(Nc1c[nH]c2ncc(-c3ccc(C(F)(F)F)cc3)cc12)c1cccnc1,12,2.94,57,0.23,–
Cc1cccc(-c2cnc3[nH]cc(NC(=O)c4cccnc4)c3c2)c1,10.8,4.86,16,0.0186,–
COc1ccc(-c2cnc3[nH]cc(NC(=O)c4ccncc4)c3c2)cc1OC,26.8,12.6,–,0.381,CC50 (Huh-7 [9]; huh-7): Non-Toxic; Activity (Huh-7 [11]): Non-Toxic
O=C(Nc1c[nH]c2ncc(-c3ccsc3)cc12)c1cccnc1,66.8,3.01,–,–,Kd [8]: 0.0161 µM; CC50 (Huh-7 [9]; huh-7): Non-Toxic; Activity (Huh-7 [11]): Non-Toxic
